Assays:
[1] = Odor unpleasantness of samples exposed to malodorant solution, evaluated by a panel of expert graders; conditions: % relative unpleasantness vs. reference (malodorant solution = 100); 10 ml of 0.1% aqueous ammonia; 16 mg total odor control material; five expert graders, 4 replicates, 25° C.
Description: For proving the synergistic effect on odor reduction several test samples are prepared by exposing them to a 0.1% aqueous solution of ammonia, which serves as a test malodorous substance. The first data point in table 2 serves as a benchmark as it represents the degree of unpleasantness of the ammonia solution without added odor control material. Data points 2-3 in table 2 are illustrating the malodor-reducing activity of two exemplary odor control materials alone, specifically alpha-amylcinnamaldehyde as exemplary aldehyde and menthyl acetate as an exemplary odor control material acting on the nose receptors. The last data point 4 in table 2 is illustrating the activity of the odor control system of the present invention. For comparability, two individual odor control materials were mixed at half their amount compared to data points 2-3. Data point 4 was obtained by testing a mixture of alpha-Amylcinnamaldehyde and menthyl acetate. […] Thus, synergistic odor control activity has been proven. Further, odor unpleasantness and pleasantness of these samples was evaluated by a panel of expert graders. In particular, five different expert graders evaluated 4 replicates for each sample. Odor unpleasantness was evaluated by using a scale from −10 to +0, where—10 indicates the max odor unpleasantness, 0 indicates no odor. […]

[2] = Thermogravimetric analysis (TGA), weight loss over time at 40° C.; assay type: physicochemical; conditions: samples kept at 40° C. for 180 minutes, mixture = menthyl acetate (10%) + silica gel (ex Grace, coded 123)
Description: The stabilization effect has been proven by running a Thermogravimetric analysis (TGA) on samples of narrow silica gel treated with 10 weight-% of menthyl acetate. Specifically, the method is based on evaluation of weight loss over time at specific temperature (40° C.). The samples were kept at 40° C. for 180 minutes. In order to have a basis for comparison the TGA analysis was performed on a sample of pure menthyl acetate and a sample of pure silica gel as references together with a sample of menthyl acetate (10%)+silica gel (ex Grace, coded 123).

| Weight Loss [2] | Compound | Odor unpleasantness [1] |
| --- | --- | --- |
|  | CCCCCC(C=O)=Cc1ccccc1 [Alpha-Amylcinnamaldehyde, alpha-amylcinnamaldehyde] | 64% |
| ~100% | CC(=O)OC1CC(C)CCC1C(C)C (stereo not drawn) [Menthyl acetate, menthyl acetate] | 46% |
